PMC7413254 (Nature Communications, 2020)
Read-outs that look alike come from different tables or passages of the source.

Columns and labels:
PfCRT = assay: Potential co-substrates tested for influx of VF-6 via PfCRT into the oocyte; format: cell-based, Plasmodium falciparum; parameters: key: X: Compounds that have been tested as potential co-substrates but are not required for influx of VF-6 via PfCRT into the oocyte
PfNT1 = biological target: T1, PfNT1 (Plasmodium falciparum, UniProt Q8IDM6); assay: cell-based; format: cell-based; conditions: for activity at 5000 µM: total [3H]CQ transport
T1 construct: expressed in transfected cells; host or cells: Xenopus laevis oocytes (stage V-VI), cRNA-injected
T1 sequence (Q8IDM6 whole entry): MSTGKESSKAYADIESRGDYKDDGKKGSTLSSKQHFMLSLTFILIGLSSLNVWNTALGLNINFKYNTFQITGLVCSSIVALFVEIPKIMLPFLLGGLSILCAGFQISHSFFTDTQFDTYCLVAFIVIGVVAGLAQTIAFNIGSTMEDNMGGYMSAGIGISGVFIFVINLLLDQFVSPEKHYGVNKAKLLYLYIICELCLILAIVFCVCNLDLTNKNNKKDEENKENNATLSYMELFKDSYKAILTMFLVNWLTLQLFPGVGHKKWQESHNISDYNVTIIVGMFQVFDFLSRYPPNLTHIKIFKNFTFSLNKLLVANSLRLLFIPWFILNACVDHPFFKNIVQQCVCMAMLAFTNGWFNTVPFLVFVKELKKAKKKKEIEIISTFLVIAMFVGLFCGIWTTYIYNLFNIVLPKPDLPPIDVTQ
Method in brief: (§1)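 Transport measured in Xenopus oocytes expressing the transporters, 1.5 h at 27.5 °C in ND96 pH 5.5 unless noted. For trans-stimulation, VF-6 injected in 25 nL ND96 at pH 5.0–7.0 or Na^+-free (choline) buffer; intracellular levels based on ~400 nL oocyte volume. Ten oocytes per treatment, ≥4 experiments.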

PfCRT^3D7 = PfCRT^3D7 (Plasmodium falciparum, UniProt Q8IBZ9); assay: cell-based; format: cell-based
Sequence of PfCRT^3D7 (Q8IBZ9 59-398): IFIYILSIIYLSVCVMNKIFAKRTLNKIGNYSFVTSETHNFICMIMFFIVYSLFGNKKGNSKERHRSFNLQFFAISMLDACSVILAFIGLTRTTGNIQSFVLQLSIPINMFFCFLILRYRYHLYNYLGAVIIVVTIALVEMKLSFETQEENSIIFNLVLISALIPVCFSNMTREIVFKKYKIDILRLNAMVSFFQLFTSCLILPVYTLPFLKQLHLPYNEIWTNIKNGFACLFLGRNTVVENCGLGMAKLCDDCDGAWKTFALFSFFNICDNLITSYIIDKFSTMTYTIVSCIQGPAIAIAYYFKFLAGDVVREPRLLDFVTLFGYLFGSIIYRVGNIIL
Method in brief: as §1

PfCRT^Ecu1110 [1] = biological target: T2, PfCRT^Ecu1110 (Plasmodium falciparum, UniProt Q9N623, A220S/I356L/K76T/N326D); assay: cell-based; format: cell-based; conditions: […]
T2 sequence (Q9N623 whole entry A220S/I356L/K76T/N326D): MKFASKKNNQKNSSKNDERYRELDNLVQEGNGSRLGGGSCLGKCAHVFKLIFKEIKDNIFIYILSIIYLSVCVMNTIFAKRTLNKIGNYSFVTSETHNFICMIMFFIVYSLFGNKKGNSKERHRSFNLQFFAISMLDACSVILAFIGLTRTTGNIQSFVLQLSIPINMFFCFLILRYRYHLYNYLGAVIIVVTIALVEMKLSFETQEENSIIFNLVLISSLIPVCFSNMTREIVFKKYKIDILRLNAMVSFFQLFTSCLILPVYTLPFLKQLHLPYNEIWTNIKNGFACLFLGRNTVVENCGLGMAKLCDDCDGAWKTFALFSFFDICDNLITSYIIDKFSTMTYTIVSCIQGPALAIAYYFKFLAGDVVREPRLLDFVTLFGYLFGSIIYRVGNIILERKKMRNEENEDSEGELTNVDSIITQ
Method in brief: as §1

PfCRT^Dd2 = PfCRT^Dd2 (Plasmodium falciparum, UniProt Q9N623, A220S/I356T/K76T/M74I/N326S/N75E/Q271E/R371I); assay: cell-based; format: cell-based; conditions: […]; for activity at 45000 µM: [test solute]i = 45 mM (30 mM for some solutes due to solubility)
Sequence of PfCRT^Dd2 (Q9N623 whole entry A220S/I356T/K76T/M74I/N326S/N75E/Q271E/R371I): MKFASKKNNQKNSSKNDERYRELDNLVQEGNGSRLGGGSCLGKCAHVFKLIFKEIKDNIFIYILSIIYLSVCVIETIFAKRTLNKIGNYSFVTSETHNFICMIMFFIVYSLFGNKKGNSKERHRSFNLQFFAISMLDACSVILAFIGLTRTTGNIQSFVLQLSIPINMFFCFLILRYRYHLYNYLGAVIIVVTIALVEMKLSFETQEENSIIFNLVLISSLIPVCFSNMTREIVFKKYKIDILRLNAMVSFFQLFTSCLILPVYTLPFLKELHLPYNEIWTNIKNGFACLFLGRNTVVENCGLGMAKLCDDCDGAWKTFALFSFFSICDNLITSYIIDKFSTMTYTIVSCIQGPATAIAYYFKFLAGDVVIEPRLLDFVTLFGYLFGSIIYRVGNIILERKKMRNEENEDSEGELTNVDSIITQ
Method in brief: as §1

non-expressing oocytes = format: cell-based, Xenopus laevis; conditions: total [3H]CQ transport; for Uptake of [3H]CQ (% non-expressing oocyte control), trans-stimulation: non-expressing oocytes, normalised to the oocyte type control; for Uptake of [3H]CQ (% PfCRTDd2 control), trans-stimulation, non-expressing oocytes: mean ± SEM, SEM
Method in brief: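 Oocytes (ten per treatment, ≥4 independent frogs/days) were preloaded by injecting VF-6 in 25 nL ND96 at pH 5.0, 5.5, 6.0 or 7.0, or Na^+-free choline buffer, then uptake run 1.5 h, 27.5 °C, ND96 pH 5.5 by default. Internal concentrations assumed ~400 nL oocyte volume.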

PfCRT^Ecu1110 [2] = biological target: T2, PfCRT^Ecu1110; assay: [3H]CQ uptake into Xenopus oocytes, cis-inhibition by unlabelled solute; format: cell-based
Method in brief: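 Assay buffer ND96 (10 mM MES, 10 mM Tris-base) held at pH 5.5 to mimic vacuole lumen; uptake measured inward from this acidic medium over 1.5 h at 27.5 °C.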

[3] = read-out: PfCRT-mediated [3H]CQ transport, cis-inhibition (% PfCRTEcu1110 control)

Question: With `CC(C)C[C@H](N)C(=O)O` [L-leucine] as the compound, how does the “Tested as potential co-substrate but not required for influx of VF-6 via PfCRT into the oocyte” value (PfCRT) read?
Answer: X

Question: And the activity at 5000 µM (PfNT1; PfNT1 oocytes, [test solute]i = 5 mM, normalised to the oocyte type control, read-out: Uptake of [3H]CQ (% PfNT1 control), trans-stimulation)?
Answer: 100 ± 3.8%

Question: And the activity at 45000 µM (PfNT1; SEM, read-out: Uptake of [3H]CQ (% PfCRTDd2 control), trans-stimulation, PfNT1)?
Answer: 2.3 ± 0.09%

Question: And the activity at 45000 µM (PfNT1; read-out: Uptake of [3H]CQ (% PfNT1 control), trans-stimulation)?
Answer: 98 ± 3.3%

Question: And the activity at 5000 µM (PfNT1; [test solute]i = 5 mM (intracellular), mean ± SEM, SEM, read-out: Uptake of [3H]CQ (% PfCRTDd2 control), trans-stimulation, PfNT1)?
Answer: 3%

Question: What about the activity at 5000 µM (PfCRT^3D7; PfCRT3D7 oocytes, [test solute]i = 5 mM, total [3H]CQ transport, normalised to the oocyte type control, read-out: Uptake of [3H]CQ (% PfCRT3D7 control), trans-stimulation) of the same compound?
Answer: 100 ± 2.4%

Question: And the “[3H]CQ transport (% PfCRT3D7 control), trans-stimulation, PfCRT3D7” value (PfCRT^3D7; SEM)?
Answer: 0.3 ± 0.02 % PfCRT3D7 control

Question: And the activity at 5000 µM (PfCRT^3D7; [test solute]i = 5 mM (intracellular), PfCRT3D7 oocytes, normalised to oocyte type control, read-out: PfCRT-mediated [3H]CQ transport, trans-stimulation (% PfCRT3D7 control))?
Answer: 98 ± 3.4%

Question: And the activity at 45000 µM (PfCRT^3D7; SEM, read-out: Uptake of [3H]CQ (% PfCRTDd2 control), trans-stimulation, PfCRT3D7)?
Answer: 3.2 ± 0.04%

Question: What about the activity at 45000 µM (PfCRT^3D7; read-out: PfCRT-mediated [3H]CQ transport, trans-stimulation (% PfCRT3D7 control)) of the same compound?
Answer: 95 ± 4.1%

Question: And the activity at 45000 µM (PfCRT^3D7; read-out: Uptake of [3H]CQ (% PfCRT3D7 control), trans-stimulation)?
Answer: 97 ± 2.8%

Question: What about the activity at 5000 µM (PfCRT^3D7; total [3H]CQ transport, [test solute]i = 5 mM (intracellular), mean ± SEM, SEM, read-out: Uptake of [3H]CQ (% PfCRTDd2 control), trans-stimulation, PfCRT3D7) of the same compound?
Answer: 3.3 ± 0.03%

Question: What about the activity at 5000 µM (PfCRT^Ecu1110 [1]; pH 5.5, read-out: PfCRT-mediated [3H]CQ transport, trans-stimulation (% PfCRTEcu1110 control), [test solute]i = 5 mM (intracellular), PfCRTEcu1110 oocytes, normalised to oocyte type control) of the same compound?
Answer: 96 ± 2.6%

Question: And the activity at 5000 µM (PfCRT^Ecu1110 [1]; pH 5.5, read-out: Uptake of [3H]CQ (% PfCRTEcu1110 control), trans-stimulation, PfCRTEcu1110 oocytes, [test solute]i = 5 mM, total [3H]CQ transport, normalised to the oocyte type control)?
Answer: 98 ± 3.2%

Question: And the activity at 45000 µM (PfCRT^Ecu1110 [1]; pH 5.5, read-out: Uptake of [3H]CQ (% PfCRTEcu1110 control), trans-stimulation, PfCRTEcu1110 oocytes, [test solute]i = 45 mM (30 mM for some solutes due to solubility), total [3H]CQ transport, normalised to the oocyte type control)?
Answer: 100 ± 3.5%

Question: What about the activity at 5000 µM (PfCRT^Ecu1110 [1]; read-out: Uptake of [3H]CQ (% PfCRTDd2 control), trans-stimulation, PfCRTEcu1110, total [3H]CQ transport, [test solute]i = 5 mM (intracellular), mean ± SEM, SEM) of the same compound?
Answer: 35 ± 1.3%

Question: And the activity at 45000 µM (PfCRT^Ecu1110 [1]; read-out: Uptake of [3H]CQ (% PfCRTDd2 control), trans-stimulation, PfCRTEcu1110, total [3H]CQ transport, [test solute]i = 45 mM (intracellular; 30 mM for some solutes due to solubility), mean ± SEM, SEM)?
Answer: 36 ± 1.7%

Question: And the activity at 5000 µM (PfCRT^Dd2; pH 5.5, read-out: PfCRT-mediated [3H]CQ transport, trans-stimulation (% PfCRTDd2 control), [test solute]i = 5 mM (intracellular), PfCRTDd2 oocytes, normalised to oocyte type control)?
Answer: 95 ± 3.4%

Question: What about the activity at 5000 µM (PfCRT^Dd2; pH 5.5, read-out: Uptake of [3H]CQ (% PfCRTDd2 control), trans-stimulation, PfCRTDd2, total [3H]CQ transport, [test solute]i = 5 mM (intracellular), mean ± SEM, SEM) of the same compound?
Answer: 97 ± 0.7%

Question: What about the activity at 5000 µM (PfCRT^Dd2; pH 5.5, read-out: Uptake of [3H]CQ (% PfCRTDd2 control), trans-stimulation, PfCRTDd2 oocytes, [test solute]i = 5 mM, total [3H]CQ transport, normalised to the oocyte type control) of the same compound?
Answer: 97 ± 0.7%

Question: What about the activity at 45000 µM (PfCRT^Dd2; pH 5.5, read-out: Uptake of [3H]CQ (% PfCRTDd2 control), trans-stimulation, PfCRTDd2 oocytes, total [3H]CQ transport, normalised to the oocyte type control) of the same compound?
Answer: 98 ± 2.2%

Question: And the activity at 5000 µM (PfCRT^Dd2; pH 5.5, read-out: [3H]CQ transport (% PfCRTDd2 control), trans-stimulation, PfCRTDd2, trans-stimulation, [test solute]i = 5 mM (injected), PfCRT-mediated component (background subtracted), mean ± SEM, SEM)?
Answer: 95 ± 3.4%

Question: And the activity at 45000 µM (PfCRT^Dd2; pH 5.5, read-out: [3H]CQ transport (% PfCRTDd2 control), trans-stimulation, PfCRTDd2, trans-stimulation, PfCRT-mediated component (background subtracted), mean ± SEM, SEM)?
Answer: 96 ± 2.9%

Question: What about the “Uptake of [3H]CQ (% non-expressing oocyte control), trans-stimulation” value (non-expressing oocytes; [test solute]i = 5 mM) of the same compound?
Answer: 100 ± 3.2 % non-expressing oocyte control

Question: What about the “Uptake of [3H]CQ (% non-expressing oocyte control), trans-stimulation” value (non-expressing oocytes; [test solute]i = 45 mM (30 mM for some solutes due to solubility)) of the same compound?
Answer: 100 ± 3.3 % non-expressing oocyte control

Question: What about the “Uptake of [3H]CQ (% PfCRTDd2 control), trans-stimulation, non-expressing oocytes” value (non-expressing oocytes; [test solute]i = 5 mM (intracellular)) of the same compound?
Answer: 3.2 ± 0.08 % PfCRTDd2 control

Question: What about the “Uptake of [3H]CQ (% PfCRTDd2 control), trans-stimulation, non-expressing oocytes” value (non-expressing oocytes; [test solute]i = 45 mM (intracellular; 30 mM for some solutes due to solubility)) of the same compound?
Answer: 3.2 ± 0.05 % PfCRTDd2 control

Question: And the inhibition at 500 µM (PfCRT^Ecu1110 [2]; [3])?
Answer: 99 ± 5.1%

Question: What about the inhibition at 1000 µM (PfCRT^Ecu1110 [2]; [3]) of the same compound?
Answer: 97 ± 3.1%

Question: And the inhibition at 2000 µM (PfCRT^Ecu1110 [2]; [3])?
Answer: 99 ± 2.1%

Question: What about the inhibition at 500 µM (PfCRT^Ecu1110 [2]; read-out: Uptake of [3H]CQ (% PfCRTDd2 control), cis-inhibition, PfCRTEcu1110, SEM) of the same compound?
Answer: 33 ± 1.6%
